# Columns and labels:
# [1] = target: T1, full-length human CSNK1A1 (Homo sapiens, UniProt P48729); experiment: CSNK1A1 Assay 2 (ADP-Glo, 1 μM ATP, substrate biotin-Ahx-KRRRAL-pS-VASLPGL); format: biochemical; details: Table 3, read-out: CSNK1A1 Assay 2 IC50 [mol/l] (median)
# T1 construct: N-terminal Glutathion-S-Transferase (GST) and full-length human CSNK1A1; purchased Life Technologies PV4174; host or cells: baculovirus infected insect cells
# Method in brief: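 GST-tagged full-length human CSNK1A1 from baculovirus-infected insect cells (about 0.0375 ng/μL), preincubated 15 min at 22 °C with compound in HEPES pH 7.5 buffer, with 1 μM ATP and biotin-Ahx-KRRRAL-pS-VASLPGL substrate. ADP formed read by ADP-Glo luminescence.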
# [2] = target: T1, full-length human CSNK1A1; experiment: CSNK1A1 High ATP Assay (ADP-Glo, 1 mM ATP); format: biochemical; details: Table 3, read-out: CSNK1A1 high ATP assay IC50 [mol/l] (median);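 further: 30 min kinase reaction at 22 °C with 100 µM peptide substrate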
# Method in brief: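 GST-tagged full-length human CSNK1A1 from baculovirus-infected insect cells (typically about 0.4 ng/μL), pre-incubated with compound 15 min at 22 °C. Reaction with biotinylated peptide biotin-Ahx-KRRRAL-pS-VASLPGL at 1 mM ATP. ADP formed read by ADP-Glo luminescence.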
# T1 sequence (P48729 whole entry): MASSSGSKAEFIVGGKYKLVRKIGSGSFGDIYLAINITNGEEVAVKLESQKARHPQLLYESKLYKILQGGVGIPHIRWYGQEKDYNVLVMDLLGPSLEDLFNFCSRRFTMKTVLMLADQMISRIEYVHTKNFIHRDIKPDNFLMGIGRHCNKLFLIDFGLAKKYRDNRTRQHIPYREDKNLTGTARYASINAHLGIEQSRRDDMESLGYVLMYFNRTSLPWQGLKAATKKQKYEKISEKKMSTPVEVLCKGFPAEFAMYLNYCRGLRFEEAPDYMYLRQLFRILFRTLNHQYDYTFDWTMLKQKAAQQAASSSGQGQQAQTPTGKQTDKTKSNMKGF
Structure (SMILES),IC50 [1] [nM],IC50 [2] [nM]
"O=C(Nc1cc(-c2[nH]c3c(O[C@H]4CCOC4)cc(F)nc3c2-c2ccccn2)ccn1)C(CC(F)F)c1ccc(F)cc1 (mixture of isomers) [Example 53, (2RS)-4,4-difluoro-N-{4-[5-fluoro-7-{[(3S)-oxolan-3-yl]oxy}-3-(pyridin-2-yl)-1H-pyrrolo[3,2-b]pyridin-2-yl]pyridin-2-yl}-2-(4-fluorophenyl)butanamide]",6,6
"O=C(Nc1cc(-c2[nH]c3c(OC[C@@H]4COCCO4)cc(F)nc3c2-c2ccccn2)ccn1)C(CC(F)F)c1ccc(F)cc1 (mixture of isomers) [Example 57, (2RS)—N-(4-{7-[(2S)-1,4-dioxan-2-ylmethoxy]-5-fluoro-3-(pyridin-2-yl)-1H-pyrrolo[3,2-b]pyridin-2-yl}pyridin-2-yl)-4,4-difluoro-2-(4-fluorophenyl)butanamide]",7.89,7.89
"O=C(Nc1cc(-c2[nH]c3c(O[C@H]4CCOC4)ncnc3c2-c2ccccn2)ccn1)C(CC(F)F)c1ccc(F)cc1 (mixture of isomers) [Example 72, (2RS)-4,4-difluoro-2-(4-fluorophenyl)-N-{4-[4-{[(3S)-oxolan-3-yl]oxy}-7-(pyridin-2-yl)-5H-pyrrolo[3,2-d]pyrimidin-6-yl]pyridin-2-yl}butanamide]",7.1,7.1
"O=C(Nc1cc(-c2[nH]c3ccc(F)nc3c2-c2ccccn2)ccn1)C(CC(F)F)c1ccc(F)cc1 (racemic) [Example 1, 4,4-difluoro-2-(4-fluorophenyl)-N-{4-[5-fluoro-3-(pyridin-2-yl)-1H-pyrrolo[3,2-b]pyridin-2-yl]pyridin-2-yl}butanamide]",10.1,61.3
"CN1CCN(c2cc(F)nc3c(-c4ccccn4)c(-c4ccnc(NC(=O)C(CC(F)F)c5ccc(F)cc5)c4)[nH]c23)CC1 (racemic) [Example 56, (2RS)-4,4-difluoro-N-{4-[5-fluoro-7-(4-methylpiperazin-1-yl)-3-(pyridin-2-yl)-1H-pyrrolo[3,2-b]pyridin-2-yl]pyridin-2-yl}-2-(4-fluorophenyl)butanamide]",3.19,3.19
"O=C(Nc1cc(-c2[nH]c3nc(F)cnc3c2-c2ccccn2)ccn1)C(CC(F)F)c1ccc(F)cc1 (racemic) [Example 60, (2RS)-4,4-difluoro-2-(4-fluorophenyl)-N-{4-[3-fluoro-7-(pyridin-2-yl)-5H-pyrrolo[2,3-b]pyrazin-6-yl]pyridin-2-yl}butanamide]",5.81,5.81
"O=C(Nc1cc(-c2[nH]c3c(OCC4CCCO4)cc(F)nc3c2-c2ccccn2)ccn1)C(CC(F)F)c1ccc(F)cc1 (racemic) [Example 61, (2RS)-4,4-difluoro-N-{4-[5-fluoro-7-{[(2RS)-oxolan-2-yl]methoxy}-3-(pyridin-2-yl)-1H-pyrrolo[3,2-b]pyridin-2-yl]pyridin-2-yl}-2-(4-fluorophenyl)butanamide]",11.1,11.1
"O=C(Nc1cc(-c2[nH]c3ncc(F)nc3c2-c2ccccn2)ccn1)C(CC(F)F)c1ccc(F)cc1 (racemic) [Example 62, (2RS)-4,4-difluoro-2-(4-fluorophenyl)-N-{4-[2-fluoro-7-(pyridin-2-yl)-5H-pyrrolo[2,3-b]pyrazin-6-yl]pyridin-2-yl}butanamide]",3.92,3.92
"O=C(Nc1cc(-c2[nH]c3ccnnc3c2-c2ccccn2)ccn1)C(CC(F)F)c1ccc(F)cc1 (racemic) [Example 65, (2RS)-4,4-difluoro-2-(4-fluorophenyl)-N-{4-[7-(pyridin-2-yl)-5H-pyrrolo[3,2-c]pyridazin-6-yl]pyridin-2-yl}butanamide]",2.75,2.75
"O=C(Nc1cc(-c2[nH]c3cc(Cl)nnc3c2-c2ccccn2)ccn1)C(CC(F)F)c1ccc(F)cc1 (racemic) [Example 68, (2RS)—N-{4-[3-chloro-7-(pyridin-2-yl)-5H-pyrrolo[3,2-c]pyridazin-6-yl]pyridin-2-yl}-4,4-difluoro-2-(4-fluorophenyl)butanamide]",6.93,6.93
"O=C(Nc1cc(-c2[nH]c3c(N4CCOCC4)cc(F)nc3c2-c2ccccn2)ccn1)C(CC(F)F)c1ccc(F)cc1 (racemic) [Example 69, (2RS)-4,4-difluoro-N-{4-[5-fluoro-7-(morpholin-4-yl)-3-(pyridin-2-yl)-1H-pyrrolo[3,2-b]pyridin-2-yl]pyridin-2-yl}-2-(4-fluorophenyl)butanamide]",10.4,10.4
"O=C(Nc1cc(-c2[nH]c3ccc(Cl)nc3c2-c2ccccn2)ccn1)C(CC(F)F)c1ccc(F)cc1 (racemic) [Example 70, (2RS)—N-{4-[5-chloro-3-(pyridin-2-yl)-1H-pyrrolo[3,2-b]pyridin-2-yl]pyridin-2-yl}-4,4-difluoro-2-(4-fluorophenyl)butanamide]",5.43,5.43
"O=C(Nc1cc(-c2[nH]c3cc(F)cnc3c2-c2ccccn2)ccn1)C(CO)c1ccc(F)cc1 (racemic) [Example 71, (2RS)—N-(4-(6-fluoro-3-(pyridin-2-yl)-1H-pyrrolo[3,2-b]pyridin-2-yl)pyridin-2-yl)-2-(4-fluorophenyl)-3-hydroxypropanamide]",8.21,8.21
"O=C(Nc1cc(-c2[nH]c3c(OCC(F)F)ncnc3c2-c2ccccn2)ccn1)C(CC(F)F)c1ccc(F)cc1 (racemic) [Example 78, (2RS)—N-{4-[4-(2,2-difluoroethoxy)-7-(pyridin-2-yl)-5H-pyrrolo[3,2-d]pyrimidin-6-yl]pyridin-2-yl}-4,4-difluoro-2-(4-fluorophenyl)butanamide]",5.16,5.16
"O=C(Nc1cc(-c2[nH]c3c(N4CCNCC4)ccnc3c2-c2ccccn2)ccn1)C(CC(F)F)c1ccc(F)cc1 (racemic) [Example 92, (2RS)-4,4-difluoro-2-(4-fluorophenyl)-N-{4-[7-(piperazin-1-yl)-3-(pyridin-2-yl)-1H-pyrrolo[3,2-b]pyridin-2-yl]pyridin-2-yl}butanamide]",2.35,2.35
"O=C(Nc1cc(-c2[nH]c3ccc(F)nc3c2-c2ccccn2)ccn1)[C@@H](CC(F)F)c1ccc(F)cc1 (single isomer, unassigned) [Example 2]",1.36,5
"O=C(Nc1cc(-c2[nH]c3c(OC[C@H]4COCCO4)cc(F)nc3c2-c2ccccn2)ccn1)C(CC(F)F)c1ccc(F)cc1 (single isomer, unassigned) [Example 51, (2R or S)—N-{4-[7-{[(2R)-1,4-dioxan-2-yl]methoxy}-5-fluoro-3-(pyridin-2-yl)-1H-pyrrolo[3,2-b]pyridin-2-yl]pyridin-2-yl}-4,4-difluoro-2-(4-fluorophenyl)butanamide]",4.65,4.65
"O=C(Nc1cc(-c2[nH]c3c(OC[C@H]4COCCO4)cc(F)nc3c2-c2ccccn2)ccn1)C(CC(F)F)c1ccc(F)cc1 (single isomer, unassigned) [Example 52, (2R or S)—N-{4-[7-{[(2R)-1,4-dioxan-2-yl]methoxy}-5-fluoro-3-(pyridin-2-yl)-1H-pyrrolo[3,2-b]pyridin-2-yl]pyridin-2-yl}-4,4-difluoro-2-(4-fluorophenyl)butanamide]",17.2,17.2
"O=C(Nc1cc(-c2[nH]c3c(O[C@H]4CCOC4)cc(F)nc3c2-c2ccccn2)ccn1)C(CC(F)F)c1ccc(F)cc1 (single isomer, unassigned) [Example 54, (2R or S)-4,4-difluoro-N-{4-[5-fluoro-7-{[(3S)-oxolan-3-yl]oxy}-3-(pyridin-2-yl)-1H-pyrrolo[3,2-b]pyridin-2-yl]pyridin-2-yl}-2-(4-fluorophenyl)butanamide]",4.22,4.22
"O=C(Nc1cc(-c2[nH]c3c(O[C@H]4CCOC4)cc(F)nc3c2-c2ccccn2)ccn1)C(CC(F)F)c1ccc(F)cc1 (single isomer, unassigned) [Example 55, (2R or S)-4,4-difluoro-N-{4-[5-fluoro-7-{[(3S)-oxolan-3-yl]oxy}-3-(pyridin-2-yl)-1H-pyrrolo[3,2-b]pyridin-2-yl]pyridin-2-yl}-2-(4-fluorophenyl)butanamide]",18.3,18.3
"O=C(Nc1cc(-c2[nH]c3c(OC[C@@H]4COCCO4)cc(F)nc3c2-c2ccccn2)ccn1)C(CC(F)F)c1ccc(F)cc1 (single isomer, unassigned) [Example 58, (2R or S)—N-{4-[7-{[(2S)-1,4-dioxan-2-yl]methoxy}-5-fluoro-3-(pyridin-2-yl)-1H-pyrrolo[3,2-b]pyridin-2-yl]pyridin-2-yl}-4,4-difluoro-2-(4-fluorophenyl)butanamide]",3.56,3.56
"O=C(Nc1cc(-c2[nH]c3c(OC[C@@H]4COCCO4)cc(F)nc3c2-c2ccccn2)ccn1)C(CC(F)F)c1ccc(F)cc1 (single isomer, unassigned) [Example 59, (2R or S)—N-{4-[7-{[(2S)-1,4-dioxan-2-yl]methoxy}-5-fluoro-3-(pyridin-2-yl)-1H-pyrrolo[3,2-b]pyridin-2-yl]pyridin-2-yl}-4,4-difluoro-2-(4-fluorophenyl)butanamide]",12.7,12.7
"O=C(Nc1cc(-c2[nH]c3ncc(F)nc3c2-c2ccccn2)ccn1)C(CC(F)F)c1ccc(F)cc1 (single isomer, unassigned) [Example 63, (2R or S)-4,4-difluoro-2-(4-fluorophenyl)-N-{4-[2-fluoro-7-(pyridin-2-yl)-5H-pyrrolo[2,3-b]pyrazin-6-yl]pyridin-2-yl}butanamide]",1.48,1.48

# From patent publication US12692261B2, “Substituted heterocyclic compounds and therapeutic uses thereof” (Bayer Aktiengesellschaft, priority 2020, dated 2026)
